Source: patent US20240132485A1, “HETEROCYCLIC CULLIN RING UBIQUITIN LIGASE COMPOUNDS AND USES THEREOF” (CEMM - FORSCHUNGSZENTRUM FÜR MOLEKULARE MEDIZIN GMBH, priority 2020, published 2024)

Legend:
Cyclin K = settings: cited from earlier work
[1] = test system: KBM7 cells harboring a hypomorphic UBE2M mutation; experiment: KBM7 CTG EC50 assay (UBE2M knock-out); format: cell-based; settings: Homo sapiens, KBM-7; 72 h incubation, CellTiter-Glo; read-out: KBM7 CTG EC50 (UBE2M knock-out) Activity Class
In short: (§1)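 Wild-type KBM7 cells, or KBM7 cells with a hypomorphic UBE2M mutation that impairs Cullin-RING ligase activity, were treated for 72 h with compounds in a 10-point, 1:4 titration (0 to 20 μM). Viability was read by CellTiter-Glo 2.0 luminescence.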

[2] = biological target: T1, Cdk12 (696-1,082)/CycK (1-267) protein complex (Homo sapiens, UniProt Q9NYV4); experiment: Cdk12 [high ATP] in vitro kinase activity assay; format: biochemical; settings: physiological ATP concentrations (1 mM ATP), 50 μM compound
T1 construct: Cdk12 (696-1,082)/CycK (1-267) protein complex
Experimental: This assay on recombinant proteins allows assessment of the extent of inhibition of CDK12 kinase activity of compounds. The added benefit of Cyclin K degradation as opposed to CDK12 inhibition alone can thereby be estimated. The observed disconnect between CDK12 inhibition and efficacy in the KBM7 cell viability assay supports an important contribution of Cyclin K degradation to the therapeutic effect.
Kinase reactions (50 μl) were carried out with recombinant highly purified proteins. Cdk12 (696-1,082)/CycK (1-267) protein complex (0.5 μM) was preincubated with 50 μM of compound and vehicle control (DMSO) for 10 minutes at room temperature in kinase buffer (40 mM Tris pH 7.5, 20 mM MgCl2, 0.1 mg/ml BSA) prior the addition of pS7-CTD substrate peptide (Ac-YSPTSP-pS-YSPTSP-pS-YSPTSP-pS-Y-PEG2-RR-amide, 95% purity, Biosyntan, Germany) (100 μM) and further 10 min incubation at room temperature. Cold ATP (to a final concentration of 1 mM) was added, and the reaction mixture was incubated for 60 min at 30° C. at 500 rpm. Kinase activity was determined using the ADP-Glo™ Kinase Assay (Promega). The luminescence signal was measured using the multimode plate reader EnVision 2105 (Perkin Elmer).
Uniprot protein codes: (Cdk12) Q9NYV4, (CycK) 075909

[3] = biological target: T2, DDB1-CDK12/Cyclin K ternary complex (Homo sapiens, UniProt Q16531+Q9NYV4); experiment: NanoBRET EC50 assay (HaloTag_CDK12 / NanoLuc_DDB1 in HEK293T); format: cell-based; settings: for EC50: read-out: NanoBRET EC50 Activity Class
T2 construct: expressed in transfected cells; host or cells: HEK293T wildtype cells, transient PEI transfection
Experimental: This assay measures the interaction/recruitment of CDK12/Cyclin K to DDB1, mechanistically validating the molecular glue pharmacology.
HEK293T wildtype cells are seeded 800 k cells/well (DMEM+10% FBS+1% PS) in a 6-well plate and allowed to attach for ˜7 hours followed by a transient transfection of 1.5 μg HaloTag_CDK12 Plasmid [Table 1] and 0.15 μg NanoLuc_DDB1 plasmid [Table 1] per well using PEI. Cells are incubated at 37° C., 5% CO2, harvested after 24 hours and resuspended in assay media (Opti-MEM Reduced serum media, no phenol red, 4% FBS, 1% PS). Cells are adjusted to 2.3×10^5 cells/ml and treated with HaloTag 618 Ligand at 100 nM or DMSO. 8000 cells are seeded per well in triplicates per compound in a white-walled 384-well plate, one negative control treated with DMSO instead of HaloTag 618 Ligand is seeded in triplicates and the 384-well plate is incubated at 37° C., 5% CO2 overnight. Compound stock solutions are prepared in Opti-MEM−/− (Opti-MEM I Reduced serum media, no phenol red) at 8× and used to treat the cells at a final concentration of 1× at 10 μM. Cells and compounds are incubated for 10 minutes at room temperature followed by addition of NanoBRET Nano-Glo substrate following manufacturer's protocols. The plate is shaken for 30 sec followed by immediate measurement of donor emission (NanoBRET Blue at 460 nm) and acceptor emission (BRET Deep Red at 647 nm) for 0.5 s.
The assay setup is identical to “NanoBRET fold change experimental setup”. Instead of treating cells in […] with 10 μM compound, a 10-point titration starting at 20 μM is performed with a dilution factor of 1:4, covering α range of 20000 nM-0.076 nM.

KBM7 cells (wild-type) = experiment: KBM7 CTG EC50 assay (UBE2M wild-type); format: cell-based, human; settings: for EC50: Homo sapiens, KBM-7, 72 h incubation, CellTiter-Glo, read-out: KBM7 CTG EC50 (UBE2M wild-type) Activity Class; for Ratio UBE2M WT to KO: ratio of anti-proliferative activity in KBM7 wild-type versus UBE2M knock-out cells (fold)
In short: as §1

[4] = biological target: T2, DDB1-CDK12/Cyclin K ternary complex; experiment: NanoBRET fold-change assay (HaloTag_CDK12 / NanoLuc_DDB1 in HEK293T); format: cell-based; settings: 10 μM compound, 10 minutes
In short: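 HEK293T cells transiently co-transfected with HaloTag_CDK12 and NanoLuc_DDB1, labelled overnight with 100 nM HaloTag 618 ligand (DMSO no-ligand control), then treated with compound at 10 μM final for 10 min at room temperature. BRET read as 460 nm donor and 647 nm acceptor emission after Nano-Glo substrate; reported as fold change.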

CCNK = experiment: NanoLuc-CCNK degradation assay (HEK293T_Nluc_CCNK-tagged cells); format: cell-based; settings: for DC50: 4 h incubation, HEK293T_Nluc_CCNK-tagged cells, read-out: NanoLuc-CCNK degradation DC50 Activity Class
In short: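 HEK293T cells with nanoluciferase knocked in at the N-terminus of endogenous CCNK (CRISPR) exposed to a 10-point titration (0 to 10 μM, 1:4) in Opti-MEM I + 4% FBS for 4 h. Nano-Glo substrate then added and luminescence read as a measure of Cyclin K abundance.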

CUL4B_MUT KBM7 cells = experiment: Cell viability assay (CellTiter Glo), CUL4B mutant KBM7 clone, 3-day treatment; format: cell-based; settings: Homo sapiens, KBM-7, 72 h, CUL4B mutant KBM7, 3-day treatment, read-out: LC50 CUL4B_MUT
Experimental: (§2) KBM7^WT, UBE2M and CUL4B mutant KBM7 clones (UBE2M^mut and CUL4B^mut) were seeded at a cell density of 50,000 cells/mL in 96-well with DMSO or degraders Z1 to Z3, Z5 to Z7, Z9 to Z11, Z13 and Z14 in triplicates. Cells were treated for 3 days, after which a cell viability assay was performed (CellTiter Glo, Promega), according to manufacturer's protocol. Survival curves and IC50 values (LC50 values) were calculated by best-fit analysis of the log 10 drug concentration to fold change of drug-treated cells over DMSO-treated cells. All survival assays included technical triplicates per sample, per experiment.
(§3) Compounds, Z1 to Z3, Z5 to Z7, Z9 to Z11, Z13 and Z14, were tested for their antiproliferative effects in human leukemia cells (KBM7). These cells were either transduced with a control sgRNA (KBM7_WT), or with an sgRNA targeting UBE2M or CUL4B, leading to a hypomorph (deletion of six amino acids) with a functional impairment (UBE2M_MUT).
(§4) Indeed, 11 compounds Z1 to Z3, Z5 to Z7, Z9 to Z11, Z13 and Z14 were identified to fulfill these criteria and to stand out in terms of fold-change significance; see, e.g., FIG. 1 and Table 1. The dose ranging differential effect of these hits was assessed/validated, comparing their activity in KBM7_WT (KBM7^WT) vs UBE2_MUT and CUL4B_MUT cells (UBE2M^mut and CUL4B^mut).

KBM7_WT cells = experiment: Cell viability assay (CellTiter Glo), KBM7 wild-type, 3-day treatment; format: cell-based; settings: Homo sapiens, KBM-7, 72 h, read-out: LC50 KBM7_WT
Experimental: as §2, §3, §4

UBE2M_MUT KBM7 cells = experiment: Cell viability assay (CellTiter Glo), UBE2M mutant KBM7 clone, 3-day treatment; format: cell-based; settings: Homo sapiens, KBM-7, 72 h, UBE2M mutant KBM7, 3-day treatment, read-out: LC50 UBE2M_MUT
Experimental: as §2, §3, §4

[5] = biological target: Nanoluc_DDB1 (N-terminal Nanoluc luciferase, G4S linker, DDB1 (FL)) (UniProt Q16531); experiment: NanoBRET in HEK293T cells, 10 µM compound Example 3-48; class B = 3-4 fold increase
[6] = 10-point titration from 20 μM, HEK293T

T2 sequence (Q9NYV4 whole entry): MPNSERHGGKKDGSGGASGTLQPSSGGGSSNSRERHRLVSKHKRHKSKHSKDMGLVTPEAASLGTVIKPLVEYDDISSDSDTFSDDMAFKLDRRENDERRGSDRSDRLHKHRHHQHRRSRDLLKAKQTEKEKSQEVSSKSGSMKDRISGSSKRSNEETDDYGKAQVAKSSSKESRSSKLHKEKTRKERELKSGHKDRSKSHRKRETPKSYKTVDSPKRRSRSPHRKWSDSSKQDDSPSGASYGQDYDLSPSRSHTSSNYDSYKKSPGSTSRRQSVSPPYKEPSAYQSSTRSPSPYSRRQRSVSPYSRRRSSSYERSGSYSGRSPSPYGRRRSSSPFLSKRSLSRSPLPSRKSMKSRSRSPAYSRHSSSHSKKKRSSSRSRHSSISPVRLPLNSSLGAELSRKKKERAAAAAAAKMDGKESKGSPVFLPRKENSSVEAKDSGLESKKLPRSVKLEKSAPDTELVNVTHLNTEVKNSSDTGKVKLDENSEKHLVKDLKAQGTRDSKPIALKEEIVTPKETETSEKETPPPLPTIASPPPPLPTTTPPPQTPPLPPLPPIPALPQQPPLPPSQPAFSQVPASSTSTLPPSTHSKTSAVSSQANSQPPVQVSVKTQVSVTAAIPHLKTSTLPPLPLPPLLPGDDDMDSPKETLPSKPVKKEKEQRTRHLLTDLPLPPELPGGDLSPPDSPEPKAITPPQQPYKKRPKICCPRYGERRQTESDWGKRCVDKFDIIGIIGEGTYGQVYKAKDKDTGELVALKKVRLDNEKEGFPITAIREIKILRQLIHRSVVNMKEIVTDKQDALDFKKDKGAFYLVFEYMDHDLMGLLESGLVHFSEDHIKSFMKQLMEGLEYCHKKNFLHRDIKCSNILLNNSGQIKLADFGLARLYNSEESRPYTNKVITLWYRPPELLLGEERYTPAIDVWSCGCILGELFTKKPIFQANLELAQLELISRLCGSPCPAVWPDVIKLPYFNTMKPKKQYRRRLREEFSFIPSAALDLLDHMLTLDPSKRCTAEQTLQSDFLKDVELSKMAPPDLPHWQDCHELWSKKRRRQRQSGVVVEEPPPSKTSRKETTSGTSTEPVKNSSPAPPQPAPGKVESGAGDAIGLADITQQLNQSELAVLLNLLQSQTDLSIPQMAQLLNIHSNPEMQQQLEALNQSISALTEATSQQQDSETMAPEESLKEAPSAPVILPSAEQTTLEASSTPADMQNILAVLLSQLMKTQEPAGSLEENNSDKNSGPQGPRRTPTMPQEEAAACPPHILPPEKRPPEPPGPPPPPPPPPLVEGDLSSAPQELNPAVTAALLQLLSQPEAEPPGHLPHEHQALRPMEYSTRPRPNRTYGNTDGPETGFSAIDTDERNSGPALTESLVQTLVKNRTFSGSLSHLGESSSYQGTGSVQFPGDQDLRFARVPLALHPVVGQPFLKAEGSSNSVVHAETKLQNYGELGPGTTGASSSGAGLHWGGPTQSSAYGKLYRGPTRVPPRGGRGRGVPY
T2 sequence (Q16531 whole entry): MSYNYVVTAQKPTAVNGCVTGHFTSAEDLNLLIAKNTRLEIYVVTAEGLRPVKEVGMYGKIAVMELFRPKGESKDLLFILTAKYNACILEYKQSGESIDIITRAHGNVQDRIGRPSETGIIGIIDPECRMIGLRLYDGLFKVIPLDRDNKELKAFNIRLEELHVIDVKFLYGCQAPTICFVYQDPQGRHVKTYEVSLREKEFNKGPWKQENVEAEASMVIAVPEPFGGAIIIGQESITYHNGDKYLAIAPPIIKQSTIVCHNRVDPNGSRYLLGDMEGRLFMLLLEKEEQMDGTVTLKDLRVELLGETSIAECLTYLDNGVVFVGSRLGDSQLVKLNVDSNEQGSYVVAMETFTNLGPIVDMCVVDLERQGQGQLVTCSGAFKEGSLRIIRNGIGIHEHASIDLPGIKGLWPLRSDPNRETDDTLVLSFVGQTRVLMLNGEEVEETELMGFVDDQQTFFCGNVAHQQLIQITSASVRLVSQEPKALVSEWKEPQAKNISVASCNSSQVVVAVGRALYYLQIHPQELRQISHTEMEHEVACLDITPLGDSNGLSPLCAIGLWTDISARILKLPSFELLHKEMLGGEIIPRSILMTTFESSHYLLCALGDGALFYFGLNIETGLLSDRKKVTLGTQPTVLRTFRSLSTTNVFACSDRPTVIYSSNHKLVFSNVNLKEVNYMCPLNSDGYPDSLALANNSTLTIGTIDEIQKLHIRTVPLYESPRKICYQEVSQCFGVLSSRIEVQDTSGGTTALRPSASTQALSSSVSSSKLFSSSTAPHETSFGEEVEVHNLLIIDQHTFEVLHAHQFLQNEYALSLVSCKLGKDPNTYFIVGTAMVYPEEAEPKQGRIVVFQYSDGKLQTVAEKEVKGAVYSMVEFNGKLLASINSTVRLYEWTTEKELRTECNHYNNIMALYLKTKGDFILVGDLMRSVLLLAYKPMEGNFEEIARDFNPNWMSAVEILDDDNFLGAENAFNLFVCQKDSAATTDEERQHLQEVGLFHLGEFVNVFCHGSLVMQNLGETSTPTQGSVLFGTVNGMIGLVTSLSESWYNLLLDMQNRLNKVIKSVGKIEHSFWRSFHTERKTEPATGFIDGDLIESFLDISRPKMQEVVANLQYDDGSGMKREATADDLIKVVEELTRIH
T2 sequence (O75909 whole entry partner): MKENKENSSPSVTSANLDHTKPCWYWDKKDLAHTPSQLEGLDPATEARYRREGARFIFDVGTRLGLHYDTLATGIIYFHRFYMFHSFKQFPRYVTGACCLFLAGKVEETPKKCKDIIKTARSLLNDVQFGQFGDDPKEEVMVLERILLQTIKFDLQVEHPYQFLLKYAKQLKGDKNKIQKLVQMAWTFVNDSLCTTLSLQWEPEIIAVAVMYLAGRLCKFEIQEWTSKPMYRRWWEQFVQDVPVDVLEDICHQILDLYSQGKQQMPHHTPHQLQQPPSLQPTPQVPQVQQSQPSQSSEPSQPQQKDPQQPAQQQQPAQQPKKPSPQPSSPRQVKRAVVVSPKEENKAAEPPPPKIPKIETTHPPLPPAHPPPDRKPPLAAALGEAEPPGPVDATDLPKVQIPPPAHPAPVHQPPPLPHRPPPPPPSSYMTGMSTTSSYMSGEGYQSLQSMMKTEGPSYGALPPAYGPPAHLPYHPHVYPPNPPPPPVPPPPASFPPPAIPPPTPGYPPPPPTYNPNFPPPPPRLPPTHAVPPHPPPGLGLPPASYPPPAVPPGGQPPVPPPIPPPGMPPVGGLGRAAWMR
T1 sequence (Q9NYV4 696-1082 limits assumed): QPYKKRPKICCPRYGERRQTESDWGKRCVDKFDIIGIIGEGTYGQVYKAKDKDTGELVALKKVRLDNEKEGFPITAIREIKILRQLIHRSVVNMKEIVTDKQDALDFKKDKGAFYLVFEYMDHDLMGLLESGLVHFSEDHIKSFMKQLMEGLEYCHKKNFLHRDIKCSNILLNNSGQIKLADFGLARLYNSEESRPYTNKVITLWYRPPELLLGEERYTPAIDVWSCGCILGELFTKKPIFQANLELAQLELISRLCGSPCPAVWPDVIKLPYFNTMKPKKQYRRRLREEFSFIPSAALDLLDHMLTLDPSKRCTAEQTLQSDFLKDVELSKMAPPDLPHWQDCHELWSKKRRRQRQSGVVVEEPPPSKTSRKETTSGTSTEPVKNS
T1 sequence (O75909 1-267 partner limits assumed): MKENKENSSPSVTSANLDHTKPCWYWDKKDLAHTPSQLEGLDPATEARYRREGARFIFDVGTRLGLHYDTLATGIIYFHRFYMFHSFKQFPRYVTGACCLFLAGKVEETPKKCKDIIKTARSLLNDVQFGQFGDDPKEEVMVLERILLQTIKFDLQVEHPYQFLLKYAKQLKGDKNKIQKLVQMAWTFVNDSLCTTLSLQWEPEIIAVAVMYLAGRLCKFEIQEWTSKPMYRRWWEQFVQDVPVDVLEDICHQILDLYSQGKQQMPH
Chain of Nanoluc_DDB1 (N-terminal Nanoluc luciferase, G4S linker, DDB1 (FL)) (Q16531 other isoform, or with tags, fused parts or gaps): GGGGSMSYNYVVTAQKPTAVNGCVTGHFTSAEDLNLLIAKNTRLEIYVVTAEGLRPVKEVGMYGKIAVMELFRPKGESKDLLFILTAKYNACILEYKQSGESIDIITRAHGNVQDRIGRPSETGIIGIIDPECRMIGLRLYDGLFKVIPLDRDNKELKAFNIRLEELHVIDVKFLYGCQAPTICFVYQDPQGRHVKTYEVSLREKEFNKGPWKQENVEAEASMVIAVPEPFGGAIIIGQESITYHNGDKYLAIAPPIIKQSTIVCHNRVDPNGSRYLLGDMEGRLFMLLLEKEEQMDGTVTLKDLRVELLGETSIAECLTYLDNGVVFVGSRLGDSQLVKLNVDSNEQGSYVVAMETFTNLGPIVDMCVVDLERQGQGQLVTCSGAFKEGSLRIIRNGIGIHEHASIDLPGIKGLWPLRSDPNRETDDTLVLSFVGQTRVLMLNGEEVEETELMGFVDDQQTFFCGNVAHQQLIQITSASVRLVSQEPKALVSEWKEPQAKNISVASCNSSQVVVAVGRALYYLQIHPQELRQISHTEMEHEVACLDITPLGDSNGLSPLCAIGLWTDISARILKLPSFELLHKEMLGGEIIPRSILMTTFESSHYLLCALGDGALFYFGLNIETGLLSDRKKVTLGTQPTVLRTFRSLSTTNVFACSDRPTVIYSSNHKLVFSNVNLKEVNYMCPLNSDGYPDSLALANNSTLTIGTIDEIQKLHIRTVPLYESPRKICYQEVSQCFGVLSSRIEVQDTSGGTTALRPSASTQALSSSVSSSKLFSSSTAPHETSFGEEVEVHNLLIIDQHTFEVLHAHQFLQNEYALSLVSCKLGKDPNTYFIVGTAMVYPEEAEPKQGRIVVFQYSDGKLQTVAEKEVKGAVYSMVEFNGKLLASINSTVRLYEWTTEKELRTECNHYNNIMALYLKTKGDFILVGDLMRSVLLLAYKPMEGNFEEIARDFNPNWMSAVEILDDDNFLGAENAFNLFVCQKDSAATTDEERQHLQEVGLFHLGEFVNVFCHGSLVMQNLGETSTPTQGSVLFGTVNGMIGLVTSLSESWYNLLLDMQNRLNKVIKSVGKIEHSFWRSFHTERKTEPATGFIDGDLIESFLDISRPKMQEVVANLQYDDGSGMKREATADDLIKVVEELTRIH

| Compound | CC50 (CUL4B_MUT KBM7 cells) | CC50 (KBM7_WT cells) | CC50 (UBE2M_MUT KBM7 cells) | other results |
| --- | --- | --- | --- | --- |
| CC[C@H](CO)Nc1nc(NCc2ccc(-c3ccccn3)cc2)c2ncn(C(C)C)c2n1 [CR8] | – | – | – | Cyclin K degradation, in words (Cyclin K): cause Cyclin K degradation |
| O=C(Cc1cnc2ccccc2c1)Nc1ncc(C(F)(F)F)s1 [Example 3-36, 2-(quinolin-3-yl)-N-(5-(trifluoromethyl)thiazol-2-yl)acetamide] | – | – | – | EC50 [1]: ≤ 0.25 µM; Cdk12 inhibition, in words [2]: weak Cdk12 inhibition; activity in NanoBRET assay (ternary complex formation), in words [3]: good activity; NanoBRET EC50 Activity Class [3, 6]: B (0.50 μM≤EC50≤0.25 μM); EC50 (KBM7 cells (wild-type)): ≤ 0.25 µM; activity in KBM7 cytotoxicity assay, in words (KBM7 cells (wild-type); KBM7): extremely potent activity; NanoBRET fold-change Activity Class [4]: C (2-3 fold increase); DC50 (CCNK): ≤ 0.1 µM |
| COc1cc2ncn(CCC(=O)Nc3ncc(C(F)(F)F)s3)c(=O)c2cc1OC [Example 3-64, 3-(6,7-dimethoxy-4-oxoquinazolin-3(4H)-yl)-N-(5-(trifluoromethyl)thiazol-2-yl)propanamide] | – | – | – | EC50 [1]: 0.5 to 1 µM; EC50 [3, 6]: > 10 µM; EC50 (KBM7 cells (wild-type)): ≤ 0.25 µM; Ratio UBE2M WT to KO (KBM7 cells (wild-type)): 21.9; NanoBRET fold-change Activity Class [4]: A (greater than 4-fold increase); DC50 (CCNK): ≤ 0.1 µM |
| O=C(Cc1cn2cc(Cl)ccc2n1)Nc1cc(C2CC2)[nH]n1 [Example 3-66, N-(5-cyclopropyl-1H-pyrazol-3-yl)-2-(6-chloroimidazo[1,2-a]pyridin-2-yl)acetamide] | – | – | – | EC50 [1]: ≤ 0.25 µM; activity in NanoBRET assay (ternary complex formation), in words [3]: particularly exceptional; EC50 [3, 6]: ≤ 0.25 µM; EC50 (KBM7 cells (wild-type)): ≤ 0.25 µM; dependence of cytotoxicity on UBE2M, in words (KBM7 cells (wild-type); KBM7 wild-type versus UBE2M mutant): very strong dependence; Ratio UBE2M WT to KO (KBM7 cells (wild-type)): 388.0; NanoBRET fold-change Activity Class [4]: A (greater than 4-fold increase); activity in NanoLuc CCNK degradation assay, in words (CCNK): particularly exceptional; DC50 (CCNK): ≤ 0.1 µM |
| Cc1ccc2c(CC(=O)Nc3nccs3)coc2c1C [Example Z1] | > 10 µM | 7.12 µM | > 10 µM | – |
| COc1ccc2cc(C(C)C(=O)Nc3ncc(C)s3)ccc2c1 (centres unmarked) [Example Z2] | > 10 µM | 1.35 µM | > 10 µM | – |
| O=C(Nc1nc2c(s1)CCCC2)C1CCCN1C(=O)c1ccccc1 (centres unmarked) [Example Z3] | > 10 µM | 11.8 µM | > 10 µM | – |
| Cc1cn2nc(NCCNc3ccc(C#N)cn3)sc2n1 [Example Z5] | > 10 µM | 3.75 µM | > 10 µM | – |
| Cc1cc(NC(C)C(=O)Nc2ccc(Cl)cn2)ccc1Br (centres unmarked) [Example Z6] | 6.06 µM | 1.57 µM | 6.8 µM | – |
| O=C(CCn1cnc2ccccc2c1=O)Nc1ccc(Br)cn1 [Example Z7] | > 10 µM | 1.81 µM | > 10 µM | – |
| Cc1ccc(NC(=O)C2CC(=O)N(c3cccc(Cl)c3)C2)nc1 (centres unmarked) [Example Z9] | > 10 µM | 2.35 µM | > 10 µM | – |
| O=C1CC(CNc2ncc(Cl)cn2)CN1CCc1ccccc1 (centres unmarked) [Example Z10] | > 10 µM | 7.82 µM | > 10 µM | – |
| COc1ccc(C)cc1N1CC(C(=O)Nc2nc3ccccc3[nH]2)CC1=O (centres unmarked) [Example Z11] | 2 µM | 0.92 µM | 2.75 µM | – |
| Cc1cnc(NC(=O)C2CC(=O)N(c3cccc(Cl)c3Cl)C2)s1 (centres unmarked) [Example Z13] | 5.68 µM | 1.29 µM | 6.99 µM | – |
| O=C(NCCCNc1ccc(C(F)(F)F)cn1)c1ccccc1 [Example Z14] | > 10 µM | 4.69 µM | > 10 µM | – |
| CN(C)C/C=C/C(=O)Nc1ccc(C(=O)N2CCC[C@@H](Nc3ncc(Cl)c(-c4c[nH]c5ccccc45)n3)C2)cc1 [THZ-531] | – | – | – | Cyclin K degradation, in words (Cyclin K): did not cause cyclin K degradation |
| HaloTag_CDK12 (N-terminal HaloTag, G4S linker, CDK12 (713-1052)) (from UniProt Q9NYV4 713-1052) (HEK293T cells) | – | – | – | NanoBRET fold increase [5]: 3 to 4 fold |
